Data taken from ChEMBL document CHEMBL1201862, “PubChem BioAssay data set” (2004).
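Test compounds were applied to cells in 96-well plates for 48 hours at 5 doses. At the GI50, growth is halved.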 Activity calls are given as the source filed them. Rule as the data show it: active = GI50 up to about 1.1 µM and inactive = higher.

Columns and labels:
Assay in all cases: NCI anticancer screen, dose series, 48 h
ACHN = test system: ACHN
LXFL 529 = test system: LXFL 529
UO-31 = test system: UO-31
HCT-15 = test system: HCT-15
U-251 = test system: U-251
MDA-MB-435 = test system: MDA-MB-435
M14 = test system: M14
T47D = test system: T47D
SK-MEL-2 = test system: SK-MEL-2
SNB-19 = test system: SNB-19
IGROV-1 = test system: IGROV-1
A549 = test system: A549
MOLT-4 = test system: MOLT-4
SF-268 = test system: SF-268
MDA-N = test system: MDA-N
UACC-257 = test system: UACC-257
A498 = test system: A498
BT-549 = test system: BT-549
SK-MEL-28 = test system: SK-MEL-28
OVCAR-3 = test system: OVCAR-3

Row | SMILES | GI50 (ACHN) | GI50 (LXFL 529) | GI50 (UO-31) | GI50 (HCT-15) | GI50 (U-251) | GI50 (MDA-MB-435) | GI50 (M14) | GI50 (T47D) | GI50 (SK-MEL-2) | GI50 (SNB-19) | GI50 (IGROV-1) | GI50 (A549) | GI50 (MOLT-4) | GI50 (SF-268) | GI50 (MDA-N) | GI50 (UACC-257) | GI50 (A498) | GI50 (BT-549) | GI50 (SK-MEL-28) | GI50 (OVCAR-3)
1 | CC1=C(N2CC2)C(=O)c2nc3n(c2C1=O)CCC3OC(=O)CCl (stereo unspecified) | 0.047 µM (active) | 0.0776 µM (active) | 0.0483 µM (active) | 0.0194 µM | 0.0252 µM (active) | 0.0298 µM (active) | 0.0361 µM (active) | 1.11 µM (active) | 0.0478 µM (active) | 0.0538 µM (active) | 0.19 µM (active) | 0.0593 µM (active) | 0.753 µM (active) | 0.0498 µM (active) | 0.0222 µM (active) | 0.0883 µM (active) | 0.061 µM (active) | 0.0152 µM (active) | 0.0555 µM (active) | 0.0771 µM (active)
2 | CCCCC(=O)OCC(=O)[C@]1(O)Cc2c(O)c3c(c(O)c2[C@@H](OC2CC(NC(=O)C(F)(F)F)C(O)C(C)O2)C1)C(=O)c1c(OC)cccc1C3=O (stereo partly specified) | 0.406 µM (active) | 0.743 µM (active) | 1.06 µM (active) | 1.39 µM | 0.221 µM (active) | 2.07 µM (inactive) | 0.832 µM (active) | 0.54 µM (active) | 0.962 µM (active) | 0.348 µM (active) | 0.794 µM (active) | 0.194 µM (active) | 0.0228 µM (active) | 0.403 µM (active) | 1.15 µM (inactive) | 1.3 µM (inactive) | 0.247 µM (active) | 2.11 µM (inactive) | 1.73 µM (inactive) | 2.96 µM (inactive)
3 | COc1c2c(c(OC)c3c(=O)cc(C/C(=N/NC(=O)C[n+]4ccccc4)C(=O)Nc4cc(C)ccc4C)oc13)OCO2 | > 100 µM (inactive) | > 100 µM (inactive) | > 100 µM (inactive) | > 100 µM | > 100 µM (inactive) | – | > 100 µM (inactive) | – | > 100 µM (inactive) | > 100 µM (inactive) | > 100 µM (inactive) | > 100 µM (inactive) | > 100 µM (inactive) | > 100 µM (inactive) | – | > 100 µM (inactive) | > 100 µM (inactive) | – | > 100 µM (inactive) | > 100 µM (inactive)
4 | C/C(=C\c1ccccc1)C(O)S(=O)(=O)O (stereo unspecified) | > 100 µM (inactive) | > 100 µM (inactive) | > 100 µM (inactive) | > 100 µM | > 100 µM (inactive) | – | > 100 µM (inactive) | – | > 100 µM (inactive) | > 100 µM (inactive) | > 100 µM (inactive) | > 100 µM (inactive) | > 100 µM (inactive) | > 100 µM (inactive) | – | > 100 µM (inactive) | > 100 µM (inactive) | – | > 100 µM (inactive) | > 100 µM (inactive)
5 | COc1cc(OC)c2c(c1)C(=O)C(CC(C)O)=CC2=O (stereo unspecified) | 16.6 µM (inactive) | 13.2 µM (inactive) | 16.3 µM (inactive) | 14.6 µM | 17.9 µM (inactive) | – | 18.5 µM (inactive) | – | 19.7 µM (inactive) | 17.7 µM (inactive) | 18.2 µM (inactive) | 22.3 µM (inactive) | 3.89 µM (inactive) | 18.2 µM (inactive) | – | 16.6 µM (inactive) | 17.8 µM (inactive) | – | 17.7 µM (inactive) | 5.82 µM (inactive)
6 | CC(=O)Nc1ccc(-c2nnc(SCC(=O)Nc3ccc(Cl)cc3)o2)cc1 | 12.7 µM (inactive) | 8.97 µM (inactive) | 14.4 µM (inactive) | 13.9 µM | 3.38 µM (inactive) | – | 14.5 µM (inactive) | – | 17.5 µM (inactive) | 20 µM (inactive) | 12.2 µM (inactive) | 16.8 µM (inactive) | 11.2 µM (inactive) | 4.53 µM (inactive) | – | 16.4 µM (inactive) | 14.8 µM (inactive) | – | 13.2 µM (inactive) | 9.06 µM (inactive)
7 | CCOc1ccccc1NC(=O)C(C#N)C1=C(Cl)C(=O)c2ccccc2C1=O (stereo unspecified) | 1.79 µM (inactive) | 1.85 µM (inactive) | 1.73 µM (inactive) | 1.47 µM | 1.71 µM (inactive) | – | 1.68 µM (inactive) | – | 1.55 µM (inactive) | 2.13 µM (inactive) | 2.13 µM (inactive) | 1.95 µM (inactive) | 1.17 µM (inactive) | 2.11 µM (inactive) | – | 1.06 µM (active) | 19.8 µM (inactive) | – | 2.03 µM (inactive) | 1.6 µM (inactive)
8 | O=C(/C=C/c1ccccc1O)c1ccccc1Cl | 51.5 µM (inactive) | 30.5 µM (inactive) | 52.4 µM (inactive) | 28.6 µM | 39.9 µM (inactive) | – | 54.5 µM (inactive) | – | 61.5 µM (inactive) | 45.1 µM (inactive) | 32.6 µM (inactive) | > 100 µM (inactive) | 30.7 µM (inactive) | 44.5 µM (inactive) | – | > 100 µM (inactive) | 90.4 µM (inactive) | – | > 100 µM (inactive) | 38.1 µM (inactive)
